Assay results as given in article PMC4264242, “Androgen Receptor Antagonists and Anti-Prostate Cancer Activities of Some Newly Synthesized Substituted Fused Pyrazolo-, Triazolo- and Thiazolo-Pyrimidine Derivatives” (International Journal of Molecular Sciences, 2014).

System: castrated immature rats
Experiment: In vivo anti-androgenic activity in castrated immature rats treated with testosterone propionate
Design: species or system rat
Source text: […] male Wistar rats were obtained from the Animal House Colony, Research Institute of Ophthalmology, Giza, Egypt. Prepubertal male rats aged 3 weeks were castrated using the scrotal route under ether anesthesia.

CC(O)(CS(=O)(=O)c1ccc(F)cc1)C(=O)Nc1ccc(C#N)c(C(F)(F)F)c1 (centres unmarked) [Bicalutamide, reference compound]
ED50 (Rattus norvegicus, castrated immature rats, TP 0.5 mg/kg s.c., compound p.o., read-out: ED50, in vivo anti-androgen activity): 1.6 mg/kg
% (Inhibition), in vivo anti-androgen activity (inhibition of TP effect (TP 0.5 mg/kg s.c. once daily for 5 days), tested compound 10-30 mg/kg p.o.): 75%
